Data as given in patent US20200361895A1, “NOVEL SULFONAMIDE CARBOXAMIDE COMPOUNDS” (Inflazome Limited, priority 2017, published 2020).
pIC50: −log10 of the molar value. Where a name gives a salt, the structure may show the parent alone. Read-outs that look alike come from different tables or passages of the source.

Tests used:
[1] = PK protocol, intravenous administration; assay type: in vivo, male Sprague Dawley rats; settings: male, Sprague Dawley, plasma, rat; for Vd: read-out: Vdss
Protocol: Pharmacokinetic parameters were determined in male Sprague Dawley rats (Charles River, UK, 250-350 g; or Vital River Laboratory Animal Technology Co Ltd, Beijing, China, 7-9 weeks old). Animals were individually housed during the study and maintained under a 12 h light/dark cycle. Animals had free access to food and water.
For intravenous administration, compounds were formulated as a solution in water or DMSO:PBS [10:90] in 2 mL/kg dosing volume and administered via tail vein. For oral administration, compounds were formulated as a solution in DMSO:water [10:90] in 5 mL/kg dosing volume and administered orally.
Serial blood samples (about 120-300 μL) were taken from each animal at each of 8 time-points post dose (0.083, 0.25, 0.5, 1, 2, 4, 8 and 24 h) or at each of 12 time-points post dose (0.03, 0.1, 0.17, 0.25, 0.5, 1, 2, 4, 6, 8, 12 and 24 h) or pre-dose and at each of 9 time-points post dose (0.25, 0.5, 1, 2, 4, 6, 8, 12 and 24 h). Samples were held on ice for no longer than 30 minutes before centrifugation (10,000 rpm (8,385 g) for 3 minutes; or 5,696 rpm (3,000 g) for 15 minutes) for plasma generation. Plasma was frozen on dry ice prior to bioanalysis. PK parameters were generated from LC-MS/MS data using Dotmatics or Phoenix WinNonlin 6.3 software.

NLRP3 [2] = molecular target: T1, NLRP3 (Homo sapiens, UniProt Q96P20); test: THP-1 cells pyroptosis assay (LPS + nigericin, resazurin readout; THP IC50); assay type: cell-based; set-up: Seed THP-1 cells (25,000 cells/well) containing 1.0 μg/ml LPS in 40 μl of RPMI medium; host or cells: THP-1 cells
Summary of the method: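 IC50 from 4-parameter fit of resazurin fluorescence (100 μM, 1-2 hrs), reflecting surviving cells after pyroptosis. LPS-primed (1 μg/ml) THP-1 cells in FBS-free RPMI got compound for 3 hrs at 37° C (top 10 μM, half-log, 8 points), then nigericin 5 μM for 1 hr.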

NLRP3 [3] = molecular target: T1, NLRP3; test: Human whole blood IL1β release assay (LPS + nigericin, AlphaLisa IL-1β; HWB IC50); assay type: cell-based; set-up: Human whole blood in Li-heparin tubes was obtained from healthy donors from a volunteer donor panel; from tissue; host or cells: human whole blood from healthy donors; settings: IL-1β release
Summary of the method: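 IL-1β in plasma supernatant quantified by AlphaLisa after nigericin (10 μM final, 1 h, 37 °C) triggering of human whole blood that had been preincubated 3 h with LPS (1 μg/ml) plus compound (half-log, 8 points, from 10 μM). IC50 by variable-slope four-parameter regression.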

T1 sequence (Q96P20 whole entry): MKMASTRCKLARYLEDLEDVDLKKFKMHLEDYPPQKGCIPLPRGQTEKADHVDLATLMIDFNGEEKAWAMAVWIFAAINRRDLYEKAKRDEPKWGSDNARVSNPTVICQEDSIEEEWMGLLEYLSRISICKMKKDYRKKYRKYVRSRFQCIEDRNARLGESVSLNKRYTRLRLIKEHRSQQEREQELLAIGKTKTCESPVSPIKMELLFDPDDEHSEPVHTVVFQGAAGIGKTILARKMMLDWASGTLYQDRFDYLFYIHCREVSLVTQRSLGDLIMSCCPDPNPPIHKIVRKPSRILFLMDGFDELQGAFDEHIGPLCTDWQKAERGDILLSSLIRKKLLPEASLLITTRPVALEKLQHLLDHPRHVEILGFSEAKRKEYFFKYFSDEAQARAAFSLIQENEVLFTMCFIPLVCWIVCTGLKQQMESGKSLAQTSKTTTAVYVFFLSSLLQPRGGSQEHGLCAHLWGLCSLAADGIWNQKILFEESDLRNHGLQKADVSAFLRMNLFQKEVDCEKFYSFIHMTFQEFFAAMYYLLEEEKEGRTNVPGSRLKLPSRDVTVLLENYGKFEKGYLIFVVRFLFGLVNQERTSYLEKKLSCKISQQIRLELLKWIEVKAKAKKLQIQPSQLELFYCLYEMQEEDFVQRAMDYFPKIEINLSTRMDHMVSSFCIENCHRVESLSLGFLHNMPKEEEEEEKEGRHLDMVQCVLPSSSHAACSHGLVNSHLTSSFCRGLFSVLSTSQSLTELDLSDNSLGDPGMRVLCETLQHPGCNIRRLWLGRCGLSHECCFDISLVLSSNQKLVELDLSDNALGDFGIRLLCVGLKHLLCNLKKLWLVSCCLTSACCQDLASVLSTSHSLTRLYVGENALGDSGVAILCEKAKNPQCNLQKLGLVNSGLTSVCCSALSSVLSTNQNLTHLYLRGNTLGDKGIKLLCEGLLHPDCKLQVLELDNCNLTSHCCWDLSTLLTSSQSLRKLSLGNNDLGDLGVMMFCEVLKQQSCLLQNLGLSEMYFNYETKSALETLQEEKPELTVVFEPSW

| AUC ([1]; dose 1 mg/kg) | clearance ([1]; dose 1 mg/kg) | half-life ([1]; dose 1 mg/kg) | Vd ([1]; dose 1 mg/kg) | pIC50 (NLRP3 [2]) | pIC50 (NLRP3 [3]) | AUC ([1]; dose 1.98 mg/kg) | clearance ([1]; dose 1.98 mg/kg) | half-life ([1]; dose 1.98 mg/kg) | Vd ([1]; dose 1.98 mg/kg) | SMILES |
| --- | --- | --- | --- | --- | --- | --- | --- | --- | --- | --- |
| 0.341 µg·h/mL | 2.95 L/h/kg | 3.3 h | 4.49 L/kg | ≥ 6.30 | ≥ 6.30 |  |  |  |  | CC(C)c1cc(F)cc(-c2cccnc2)c1NC(=O)NS(=O)(=O)c1ccn(C(C)C)n1 [Example 1, N-((4-Fluoro-2-iso-propyl-6-(pyridin-3-yl)phenyl)carbamoyl)-1-iso-propyl-1H-pyrazole-3-sulfonamide] |
|  |  |  |  | ≥ 6.30 | ≥ 6.30 | 0.806 µg·h/mL | 2.45 L/h/kg | 3.8 h | 7.14 L/kg | CC(C)c1cc(F)cc(-c2ccncc2)c1NC(=O)NS(=O)(=O)c1ccn(C(C)C)n1 [Example 10, N-((4-Fluoro-2-iso-propyl-6-(pyridin-4-yl)phenyl)carbamoyl)-1-iso-propyl-1H-pyrazole-3-sulfonamide, partial ammonium salt] |
| 0.412 µg·h/mL | 2.51 L/h/kg | 0.4 h | 0.41 L/kg | ≥ 6.30 | ≥ 6.30 |  |  |  |  | CC(C)c1cc(F)cc(-c2ccnc(O)c2)c1NC(=O)NS(=O)(=O)c1ccn(C(C)C)n1 [Example 25, N-((4-Fluoro-2-(2-hydroxypyridin-4-yl)-6-iso-propylphenyl)carbamoyl)-1-iso-propyl-1H-pyrazole-3-sulfonamide] |
| 0.386 µg·h/mL | 2.6 L/h/kg | 1.2 h | 1.07 L/kg | ≥ 6.30 | ≥ 6.30 |  |  |  |  | CC(C)c1cc(F)cc(-c2ccnc(C#N)c2)c1NC(=O)NS(=O)(=O)c1ccn(C(C)C)n1 [Example 28, N-((2-(2-Cyanopyridin-4-yl)-4-fluoro-6-iso-propylphenyl)carbamoyl)-1-iso-propyl-1H-pyrazole-3-sulfonamide] |
| 0.182 µg·h/mL | 5.48 L/h/kg | 2.3 h | 2.72 L/kg | ≥ 5.30 | ≥ 6.30 |  |  |  |  | CC(C)c1cc(F)cc(C2CCOCC2)c1NC(=O)NS(=O)(=O)c1cc(C(=O)N(C)C)n(C)n1 [Example 30, 3-(N-((4-Fluoro-2-iso-propyl-6-(tetrahydro-2H-pyran-4-yl)phenyl)carbamoyl)sulfamoyl)-N,N,1-trimethyl-1H-pyrazole-5-carboxamide, sodium salt] |
| 0.274 µg·h/mL | 3.64 L/h/kg | 6.3 h | 3.95 L/kg | ≥ 6.30 | ≥ 6.30 |  |  |  |  | CC(C)c1cc(F)cc(-c2cccnc2)c1NC(=O)NS(=O)(=O)c1cc(C(=O)N(C)C)n(C)n1 [Example 33, 3-(N-((4-Fluoro-2-iso-propyl-6-(pyridin-3-yl)phenyl)carbamoyl)sulfamoyl)-N,N,1-trimethyl-1H-pyrazole-5-carboxamide, sodium salt] |
| 0.661 µg·h/mL | 1.51 L/h/kg | 12.1 h | 3.03 L/kg | ≥ 6.00 | ≥ 6.30 |  |  |  |  | CC(C)c1cc(F)cc(-c2cnn(C)c2)c1NC(=O)NS(=O)(=O)c1cc(C(=O)N(C)C)n(C)n1 [Example 34, 3-(N-((4-Fluoro-2-iso-propyl-6-(1-methyl-1H-pyrazol-4-yl)phenyl)carbamoyl)sulfamoyl)-N,N,1-trimethyl-1H-pyrazole-5-carboxamide, sodium salt] |
| 0.356 µg·h/mL | 2.86 L/h/kg | 0.5 h | 0.8 L/kg | ≥ 6.30 | ≥ 6.30 |  |  |  |  | COc1cc(-c2cc(F)cc(C(C)C)c2NC(=O)NS(=O)(=O)c2cc(CN(C)C)n(C)n2)ccn1 [Example 36, 5-((Dimethylamino)methyl)-N-((4-fluoro-2-iso-propyl-6-(2-methoxypyridin-4-yl)phenyl)carbamoyl)-1-methyl-1H-pyrazole-3-sulfonamide] |
| 0.248 µg·h/mL | 4.03 L/h/kg | 0.3 h | 1.32 L/kg | ≥ 6.30 | ≥ 6.30 |  |  |  |  | COc1cc(-c2cc(F)cc(C(C)C)c2NC(=O)NS(=O)(=O)c2cc(CN(C)C)n(C(C)C)n2)ccn1 [Example 37, 5-((Dimethylamino)methyl)-N-((4-fluoro-2-iso-propyl-6-(2-methoxypyridin-4-yl)phenyl)carbamoyl)-1-iso-propyl-1H-pyrazole-3-sulfonamide] |
| 0.375 µg·h/mL | 3.09 L/h/kg | 1.2 h | 1.14 L/kg | ≥ 6.30 | ≥ 6.30 |  |  |  |  | CC(C)c1cc(F)cc(-c2cccc(C#N)c2)c1NC(=O)NS(=O)(=O)c1cc(CN(C)C)n(C)n1 [Example 38, N-((3′-Cyano-5-fluoro-3-iso-propyl-[1,1′-biphenyl]-2-yl)carbamoyl)-5-((dimethylamino)methyl)-1-methyl-1H-pyrazole-3-sulfonamide] |
| 0.259 µg·h/mL | 3.89 L/h/kg | 0.5 h | 0.75 L/kg | ≥ 6.30 | ≥ 6.30 |  |  |  |  | CC(C)c1cc(F)cc(-c2cccnc2)c1NC(=O)NS(=O)(=O)c1cc(CN(C)C)n(C)n1 [Example 44, 5-((Dimethylamino)methyl)-N-((4-fluoro-2-isopropyl-6-(pyridin-3-yl)phenyl)carbamoyl)-1-methyl-1H-pyrazole-3-sulfonamide] |
| 0.259 µg·h/mL | 3.94 L/h/kg | 0.5 h | 0.98 L/kg | ≥ 6.30 | ≥ 6.30 |  |  |  |  | Cc1cc(-c2cc(F)cc(C(C)C)c2NC(=O)NS(=O)(=O)c2cc(CN(C)C)n(C)n2)n(C)n1 [Example 45] |
| 0.6 µg·h/mL | 1.67 L/h/kg | 3.7 h | 3.68 L/kg | ≥ 6.30 | ≥ 6.30 |  |  |  |  | CC#Cc1cc(-c2cc(F)cc(C(C)C)c2NC(=O)NS(=O)(=O)c2ccn(C(C)C)n2)ccn1 [Example 51, N-((4-Fluoro-2-isopropyl-6-(2-(prop-1-yn-1-yl)pyridin-4-yl)phenyl)carbamoyl)-1-isopropyl-1H-pyrazole-3-sulfonamide] |
| 0.2 µg·h/mL | 5.12 L/h/kg | 1.6 h | 2.5 L/kg | ≥ 6.30 | ≥ 6.30 |  |  |  |  | CC(C)c1cc(F)cc(-c2ccnc(C#N)c2)c1NC(=O)NS(=O)(=O)c1cn(C(C)C)cn1 [Example 54, N-((2-(2-Cyanopyridin-4-yl)-4-fluoro-6-isopropylphenyl)carbamoyl)-1-isopropyl-1H-imidazole-4-sulfonamide] |
| 1.86 µg·h/mL | 0.588 L/h/kg | 6.9 h | 3.25 L/kg | ≥ 6.30 | ≥ 6.00 |  |  |  |  | COc1cc(-c2cc(F)c3c(c2NC(=O)NS(=O)(=O)c2ccn(C(C)C)n2)CCC3)ccn1 [Example 55, N-((7-Fluoro-5-(2-methoxypyridin-4-yl)-2,3-dihydro-1H-inden-4-yl)carbamoyl)-1-isopropyl-1H-pyrazole-3-sulfonamide] |
| 0.3 µg·h/mL | 3.38 L/h/kg | 1 h | 1.22 L/kg | ≥ 6.30 | ≥ 6.30 |  |  |  |  | CC(C)c1cc(F)cc(-c2cccnc2)c1NC(=O)NS(=O)(=O)c1ccn(C[C@@H](C)O)n1 [Example 60, (R)-N-((4-Fluoro-2-isopropyl-6-(pyridin-3-yl)phenyl)carbamoyl)-1-(2-hydroxypropyl)-1H-pyrazole-3-sulfonamide] |
| 0.346 µg·h/mL | 2.89 L/h/kg | 2.2 h | 1.77 L/kg | ≥ 6.30 |  |  |  |  |  | COc1cc(-c2cc(F)cc(C(C)C)c2NC(=O)NS(=O)(=O)c2cncc(N(C)C)n2)ccn1 [Example 103, 6-(Dimethylamino)-N-((4-fluoro-2-isopropyl-6-(2-methoxypyridin-4-yl)phenyl)carbamoyl)pyrazine-2-sulfonamide] |
| 0.841 µg·h/mL | 1.19 L/h/kg | 1.2 h | 1.04 L/kg | ≥ 6.30 |  |  |  |  |  | COc1cc(-c2ccc3c(c2NC(=O)NS(=O)(=O)c2cncc(N(C)C)n2)CCC3)ccn1 [Example 104, 6-(Dimethylamino)-N-((5-(2-methoxypyridin-4-yl)-2,3-dihydro-1H-inden-4-yl)carbamoyl)pyrazine-2-sulfonamide] |
